Assay results as given in patent US12661359B2 (Madrigal Pharmaceuticals, Inc., priority 2021, dated 2026).
Blank lines part the entries; values can stand above or below the molecule they belong to.

Assays:
human OSTαβ = target: T1, human OSTαβ (Homo sapiens, UniProt Q86UW1+Q86UW2); assay: OSTαβ-mediated transport in transfected MDCK-II cells versus control cells
T1 sequence (Q86UW1 1-340): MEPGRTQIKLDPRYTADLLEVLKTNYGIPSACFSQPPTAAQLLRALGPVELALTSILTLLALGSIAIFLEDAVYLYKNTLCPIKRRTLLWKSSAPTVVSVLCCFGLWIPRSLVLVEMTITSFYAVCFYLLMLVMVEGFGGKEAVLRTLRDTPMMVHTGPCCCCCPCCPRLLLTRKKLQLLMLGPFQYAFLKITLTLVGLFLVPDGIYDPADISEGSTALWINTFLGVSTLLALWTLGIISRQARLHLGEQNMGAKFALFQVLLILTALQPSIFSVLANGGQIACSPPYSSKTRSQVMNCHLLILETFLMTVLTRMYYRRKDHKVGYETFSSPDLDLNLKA
T1 sequence (Q86UW2 1-128): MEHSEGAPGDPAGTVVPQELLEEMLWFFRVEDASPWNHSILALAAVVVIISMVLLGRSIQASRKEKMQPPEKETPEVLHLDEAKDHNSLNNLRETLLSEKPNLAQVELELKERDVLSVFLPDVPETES
Protocol: Transfected cells and control cells are both exposed to the compound, and the concentration of the compound in the transfected cells and the control cells are then measured. An uptake ratio can then be calculated to quantify the difference of the concentration, indicating whether OSTαβ mediates the transport of the compound.
MGL-3196 was tested as a potential substrate for human OSTαβ-mediated transport.

P-gp = P-gp (Homo sapiens, UniProt P08183); assay: P-gp inhibition; format: in vitro ADME
Source text: (§1) Based on the predicted gut-wall BCRP interaction (R=33.5), there is a possible contribution of gut BCRP inhibition to drug interactions.

[1] = test system: patients with heterozygous familial hypercholesterolemia (HeFH); assay: Phase 2 trial MGL-3196-06 (NCT03038022) in HeFH patients; format: in vivo, human; conditions: MGL-3196 100 mg once daily, 12 weeks
Protocol: A Phase 2 clinical trial was conducted in 116 patients with proven heterozygous familial hypercholesterolemia (HeFH). The primary endpoint was reduction in LDL-C compared with placebo and secondary endpoints included effects on additional lipids and lipoproteins.
MGL-3196-06 (NCT03038022) was a 12-week multicenter, randomized, double blind, placebo-controlled trial in HeFH patients not at LDL-C target on maximally tolerated statins. Patients received MGL-3196 100 mg or placebo once daily for 12 weeks (in a 2:1 ratio) in addition to their LDL-C lowering regimen.

[2] = cited from earlier work
[3] = human, in vivo
patients with NASH = conditions: cited from earlier work
BCRP = target: T2, BCRP (Homo sapiens, UniProt Q9UNQ0); assay: BCRP inhibition and DDI R-value assessment; format: in vitro ADME
T2 sequence (Q9UNQ0 1-655): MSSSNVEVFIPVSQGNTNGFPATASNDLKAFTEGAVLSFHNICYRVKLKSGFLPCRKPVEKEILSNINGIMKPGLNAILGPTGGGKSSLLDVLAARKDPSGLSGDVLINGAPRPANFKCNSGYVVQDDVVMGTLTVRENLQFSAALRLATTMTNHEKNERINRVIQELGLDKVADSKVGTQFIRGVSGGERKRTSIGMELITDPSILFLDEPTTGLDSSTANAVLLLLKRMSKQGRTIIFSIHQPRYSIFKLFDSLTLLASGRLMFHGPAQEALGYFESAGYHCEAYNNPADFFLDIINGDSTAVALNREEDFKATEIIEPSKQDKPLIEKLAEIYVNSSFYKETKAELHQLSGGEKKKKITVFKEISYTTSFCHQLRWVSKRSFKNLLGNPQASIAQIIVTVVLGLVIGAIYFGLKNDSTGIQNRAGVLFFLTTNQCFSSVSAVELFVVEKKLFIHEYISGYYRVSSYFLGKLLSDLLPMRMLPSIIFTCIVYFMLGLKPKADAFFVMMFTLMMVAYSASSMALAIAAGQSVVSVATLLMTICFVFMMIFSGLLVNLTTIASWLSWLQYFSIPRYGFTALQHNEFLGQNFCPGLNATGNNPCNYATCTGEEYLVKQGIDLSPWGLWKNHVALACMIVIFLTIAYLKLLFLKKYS
Source text: as §1

clinical = conditions: human, in vivo; for AUC(0-inf): AUCinf; for AUC(0-t): AUClast

P-gp, sequence (P08183 whole entry): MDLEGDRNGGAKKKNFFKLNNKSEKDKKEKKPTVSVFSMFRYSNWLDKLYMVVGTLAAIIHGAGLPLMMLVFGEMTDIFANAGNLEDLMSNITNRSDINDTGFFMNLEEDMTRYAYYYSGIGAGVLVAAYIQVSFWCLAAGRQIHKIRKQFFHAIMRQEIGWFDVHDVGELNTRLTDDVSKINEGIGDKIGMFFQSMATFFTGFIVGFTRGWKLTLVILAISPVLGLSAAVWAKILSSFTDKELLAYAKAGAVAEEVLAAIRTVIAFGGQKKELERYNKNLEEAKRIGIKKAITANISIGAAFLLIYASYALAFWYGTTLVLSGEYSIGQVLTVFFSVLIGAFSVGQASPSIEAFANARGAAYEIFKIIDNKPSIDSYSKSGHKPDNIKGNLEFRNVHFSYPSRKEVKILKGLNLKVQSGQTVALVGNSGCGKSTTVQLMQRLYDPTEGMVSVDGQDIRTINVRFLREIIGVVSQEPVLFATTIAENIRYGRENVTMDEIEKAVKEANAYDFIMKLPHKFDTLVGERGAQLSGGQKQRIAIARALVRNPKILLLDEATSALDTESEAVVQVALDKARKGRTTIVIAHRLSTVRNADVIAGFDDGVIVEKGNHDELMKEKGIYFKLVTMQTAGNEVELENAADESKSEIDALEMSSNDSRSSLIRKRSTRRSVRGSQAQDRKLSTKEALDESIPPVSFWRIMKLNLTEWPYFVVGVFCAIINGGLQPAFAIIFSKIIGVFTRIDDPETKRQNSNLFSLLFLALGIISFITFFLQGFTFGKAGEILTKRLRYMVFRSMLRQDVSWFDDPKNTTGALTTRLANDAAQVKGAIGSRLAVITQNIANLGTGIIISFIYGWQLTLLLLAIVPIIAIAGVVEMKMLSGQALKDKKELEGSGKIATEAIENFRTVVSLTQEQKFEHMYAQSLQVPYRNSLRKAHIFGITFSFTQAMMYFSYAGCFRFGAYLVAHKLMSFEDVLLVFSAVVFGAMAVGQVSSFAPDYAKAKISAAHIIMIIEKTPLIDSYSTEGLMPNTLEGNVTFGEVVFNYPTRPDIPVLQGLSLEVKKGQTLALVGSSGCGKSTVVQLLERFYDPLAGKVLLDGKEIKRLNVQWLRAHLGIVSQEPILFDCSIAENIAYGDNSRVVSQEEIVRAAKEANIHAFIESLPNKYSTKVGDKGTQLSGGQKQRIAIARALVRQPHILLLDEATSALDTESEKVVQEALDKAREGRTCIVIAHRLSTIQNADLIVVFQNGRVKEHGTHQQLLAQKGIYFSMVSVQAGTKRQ

Substrate for human OSTαβ (conclusion in words) (human OSTαβ; MDCK): may be a substrate | Accumulation in control cells (human OSTαβ; dog, MDCK, 1 μM): 1.91 ± 0.220 pmol/min/cm^2 | Accumulation in control cells (human OSTαβ; dog, MDCK, 10 μM): 11.3 ± 0.500 pmol/min/cm^2 | Accumulation in control cells (human OSTαβ; dog, MDCK, 100 μM): 49.3 ± 6.28 pmol/min/cm^2 | Accumulation in transporter cells (human OSTαβ; human, MDCK, 1 μM): 2.58 ± 0.103 pmol/min/cm^2 | Net accumulation (human OSTαβ; human, MDCK, 1 μM): 0.670 ± 0.103 pmol/min/cm^2 | Accumulation in transporter cells (human OSTαβ; human, MDCK, 10 μM): 21.9 ± 0.810 pmol/min/cm^2 | Net accumulation (human OSTαβ; human, MDCK, 10 μM): 10.6 ± 0.810 pmol/min/cm^2 | Accumulation in transporter cells (human OSTαβ; human, MDCK, 100 μM): 137 ± 12.8 pmol/min/cm^2 | Net accumulation (human OSTαβ; human, MDCK, 100 μM): 88.1 ± 12.8 pmol/min/cm^2 | Inhibition of P-gp (in words) (P-gp): not an inhibitor | Inhibition of BCRP (in words) (BCRP): moderate inhibitor | DDI R-value (BCRP; Biliary/renal/BBB, [Ifree]/IC50 ≥ 0.02): 0.004 | DDI R-value (BCRP; Intestine, [I2]/IC50 ≥ 10, predicted gut-wall BCRP interaction): 33.5
SMILES: CC(C)c1cc(Oc2c(Cl)cc(-n3nc(C#N)c(=O)[nH]c3=O)cc2Cl)n[nH]c1=O [MGL-3196, 2-(3,5-dichloro-4-((5-isopropyl-6-oxo-1,6-dihydropyridazin-3-yl)oxy)phenyl)-3,5-dioxo-2,3,4,5-tetrahydro-1,2,4-triazine-6-carbonitrile]
LDL-C and other atherogenic lipids lowering in patients with HeFH ([1]; versus placebo): statistically significantly lowers | Apolipoprotein B (ApoB) lowering ([1]; versus placebo, p<0.0001): −18-29% | Apolipoprotein CIII (Apo CIII) lowering ([1]; versus placebo, p<0.0001): −22% | Lipoprotein (a) (Lp(a)) lowering ([1]; versus placebo, p<0.0001): −26-33% | Triglyceride (TG) lowering ([1]; versus placebo, p<0.0001): −25-31% | LDL-C lowering compared to placebo ([1]; prespecified group of patients intolerant of high intensity statin doses): 28.5% | Effect on elevated liver enzymes ([2]; NASH patients): reduces elevated liver enzymes | Safety profile ([2]; in vivo): clean safety profile | Suppression of the central thyroid axis, THR-α effects on heart rate or bone ([2]; in vivo): neither suppression of the central thyroid axis nor THR-α effects on heart rate or bone | Safety issues such as liver enzyme or creatine kinase (CK) elevations [3]: no safety issues were observed | Reducing hepatic fat compared to placebo (patients with NASH; after 12 weeks and 36 weeks of treatment): effective | Improving markers of liver injury and fibrosis compared to placebo (patients with NASH): effective | Reducing atherogenic lipids and lipoproteins (LDL cholesterol, apolipoprotein B, triglycerides, lipoprotein(a), apolipoprotein CIII) compared to placebo (patients with NASH): effective

Accumulation in control cells (human OSTαβ; dog, MDCK, 1 μM): 0.0557 ± 0.00359 pmol/min/cm^2 | Accumulation in control cells (human OSTαβ; dog, MDCK, 10 μM): 0.297 ± 0.0377 pmol/min/cm^2 | Accumulation in control cells (human OSTαβ; human, MDCK, 0.1 μM): 0.00664 ± 0.00215 pmol/min/cm^2 | Accumulation in transporter cells (human OSTαβ; human, MDCK, 0.1 μM): 0.00894 ± 0.000845 pmol/min/cm^2 | Net accumulation (human OSTαβ; human, MDCK, 0.1 μM): 0.0023 ± 0.000845 pmol/min/cm^2 | Accumulation in transporter cells (human OSTαβ; human, MDCK, 1 μM): 0.0575 ± 0.00167 pmol/min/cm^2 | Net accumulation (human OSTαβ; human, MDCK, 1 μM): 0.00176 ± 0.00167 pmol/min/cm^2 | Accumulation in transporter cells (human OSTαβ; human, MDCK, 10 μM): 0.459 ± 0.0599 pmol/min/cm^2 | Net accumulation (human OSTαβ; human, MDCK, 10 μM): 0.162 ± 0.0599 pmol/min/cm^2 | Cmax, geometric mean [3]: 3.11 ng/mL | % AUCexts, mean ([3]; 10 mg): 10.6% | Cmax, mean ([3]; 10 mg): 3.62 ng/mL | T1/2, mean ([3]; 10 mg): 18.2 h | AUC(0-inf) (clinical; 10 mg, mean): 51.7 ng·h/mL | AUC(0-t) (clinical; 10 mg, mean): 44.5 ng·h/mL | Tmax (clinical; 10 mg, Tmax, mean): 4.56 h | AUC(0-inf) (clinical; geometric mean): 46.6 ng·h/mL | AUC(0-t) (clinical; geometric mean): 38 ng·h/mL
SMILES: CC(C)c1nc(N(C)S(C)(=O)=O)nc(-c2ccc(F)cc2)c1/C=C/[C@@H](O)C[C@@H](O)CC(=O)O [rosuvastatin, (E)-7-[4-(4-fluorophenyl)-6-isopropyl-2-[methyl(methylsulfonyl)amino]pyrimidin-5-yl](3R,5S)-3,5-dihydroxyhept-6-enoic acid, reference compound]

SMILES: C[C@H](CCC(=O)NCCS(=O)(=O)O)[C@H]1CC[C@H]2[C@@H]3[C@H](O)C[C@@H]4C[C@H](O)CC[C@]4(C)[C@H]3C[C@H](O)[C@]12C [taurocholic acid, reference compound]
Net accumulation (human OSTαβ; 1 μM substrate): 0.0809 ± 0.0105 pmol/min/cm^2 | Accumulation in transporter cells (human OSTαβ; 1 μM substrate, OSTαβ MDCK-II cells): 0.109 ± 0.0105 pmol/min/cm^2
